Data reported in US9073851B2, “Compositions and methods for treating cancer” (Board of Regents, The University of Texas System, priority 2011, dated 2015).

How the values were obtained:
[1] = system: eEF-2K; test: Western blot of MCF-7 cells treated with 5-NT; assay type: cell-based, human
Protocol: (§1) FIG. 5. 5-NT down-regulates critical pro-tumorigenic processes in ER(+) MCF-7 triple negative breast cancer cells. […] 5-NT also induces PARP cleavage and LC3-II. Methods: MCF7 cells were cultured at 37° C. in DMEM supplemented with 5% FBS in a humid incubator with 5% CO2. Following incubation with or without 5-NT cells were lysed according to standard protocols for western blotting. Blots were quantified as in FIG. 3.
as §1, with “FIG. 9.” for “FIG. 5.”, “MCF-7” for “MCF-7 triple negative”, “and LC3-II formation.” for “and LC3-II.”, “without 5-NT,” for “without 5-NT”, “FIG. 7.” for “FIG. 3.”

[2] = system: MCF10A; test: MTS cell viability assay on normal breast epithelium; assay type: cell-based, human; conditions: at IC50 to IC90 doses in breast cancer cells (MCF7)
Text: (§2) (aka proliferation assay, in this case MTS assay was used. MTS, MTT, XTT all similar assays often used as cell viability/toxicity assay). Cell viability in response to compounds such as 5NT and KD06 was studied with a tetrazolium/formazan based assay (MTS, Celltiter 96 aqueous one solution cell proliferation assay, Promega, WI) [Akar U, Chaves-Reyez A, Barria g Tari A, Sanguino A, Kondo Y, Kondo S, Arun B, Lopez-Berestein G, Ozpolat B: Silencing of Bcl-2 expression by small interfering RNA induces autophagic cell death in MCF-7 breast cancer cells. Autophagy 2008, 4:669-679, Ozpolat 2007 MCR]. Cells were seeded in 96 wells plates at a density of 1.5 to 3.0×10^3 cells per well in 100 μl of medium. Next day the medium was removed and cells were treated with the drug in 100 μl of medium for 72 hours. Plates were read at 490 nm wavelength in an Elisa plate reader (Kinetic Microplate Reader, Molecular Devices Corporation, Sunnyvale, Calif.).

[3] = Toxicity and body weight observation in mice
[4] = system: MCF7 cells; test: MTS cell viability/proliferation assay; assay type: cell-based, human
Text: (§3) Viable and dead cells were detected by the trypan blue exclusion assay, where viable cells (non-stained) with intact membrane are able to exclude the dye, while dead cells take up the coloring blue agent from the media. To quantitatively assess the viability and/or proliferation of cells a MTS assay was used, which incorporates a redox indicator that changes color in response to metabolic activity. To study cell viability in response to CaMK-III siRNA or control siRNA and plasmid encoding CaMK-III or empty plasmid transfection cells were seeded in 96-well plates at a density of 3×10^3 cells per well in 100 μl of medium. Next day the medium was removed and cells were transfected with siRNA at different concentrations in 100 μl of medium plus transfection mix. Two days after transfection, the medium was removed and replaced by 180 μl of medium plus 20 μl of MTS and the cells were incubated under normal conditions until the color changed. Plates were read at dual wavelengths (570-595 nm) in an Elisa plate reader (Kinetic Microplate Reader, Molecular Devices Corporation, Sunnyvale, Calif.).
as §2

[5] = system: MCF7/Dox resistant cells; test: MTS cell viability/proliferation assay; assay type: cell-based, human
Text: as §3, §2

[6] = system: breast cancer cells; test: Cell viability assay, breast cancer cell panel or cell line not stated; assay type: cell-based, human; conditions: incl. MDA-468, BT20, MDa-MB231, SKBR3, MDA-MB435, T47D, ZR75.1
Text: as §2

[7] = system: MCF-7 cells; test: Apoptosis / cell death in MCF-7 cells (Annexin V, FACS); assay type: cell-based, human
Protocol: Apoptosis was assessed by an Annexin V assay, monitoring PARP and caspase 9 cleavage by Western blot. To provide a comparative assay of apoptosis by Annexin V labeling, tumor cells (1×10^6) treated with CaMK-III siRNA or control siRNA for 24 to 96 hours were harvested and washed with PBS. Cells were resuspended in binding buffer and stained with Annexin V and propidium iodide (PI) according to the manufacturer's protocol (BD Pharmingen Annexin V kit, San Diego, Calif.). Positive cells were detected and quantified by FACS analysis.

[8] = system: MCF-7 cells; test: Clonogenic survival assay; assay type: cell-based, human
Protocol: To study the effect of CaMK-III growth of ER(−) and ER(+) breast cancer cells we performed a clonogenic assay, which is based on the ability of a single cell to grow into a colony (Franken N A, et al. Nat Protoc 2006: 1:2315-9), using MDA-MB-231 and MCF-7 cells, respectively. Cells were transfected with either CaMK-III or control siRNA (50 nM) […] over a period of two weeks.
This assay is an in vitro cell survival assay based on the ability of a single cell to grow into a colony. Briefly, cells (500 cells/well) were transfected with control siRNA or CaMK-III siRNA every week and grown for 2 to 3 weeks. Cells were stained with crystal violet and colonies were counted. Each experiment was repeated twice.
To study the effect of 5-HT1B on the survival and colony formation of breast cancer cells a clonogenic survival assay was performed using various concentrations of […] over a period of two weeks. This assay is based on the ability of a single cell to grow into a colony [Franken N A, et al. Nat Protoc 2006: 1:2315-2319]. […] Cell death and detachment as well as reduced cell number was observed.
This assay is an in vitro cell survival assay based on the ability of a single cell to grow into a colony. […] Cells were stained with crystal violet and colonies cells were counted. […]

[9] = system: 5-HT1B/1D receptor; test: cAMP levels; assay type: cell-based
[10] = system: 5-HT1B or 5-HT1D receptor; test: Effect on cell proliferation after siRNA knockdown of 5-HT1B or 5-HT1D receptor; assay type: cell-based
[11] = system: MDA-MB-231 cells; test: MTS cell viability/proliferation assay; assay type: cell-based, human; conditions: triple negative
Text: Viable and dead cells were detected by the trypan blue exclusion assay, the viability and/or proliferation of cells a MTS assay was used [Akar U, et al. Autophagy 2008: 4:669-79].
as §3, with “Two days after transfection, the medium was removed and replaced by 180 μl of medium plus 20 μl of MTS and the cells were incubated under normal conditions until the color changed.” left out
(aka proliferation assay, in this case MTS assay was used. MTS, MTT, XTT all similar assays often used as cell viability/toxicity assay). […] Plates were read at 490 nm wavelength in an Elisa plate reader (Kinetic Microplate Reader, Molecular Devices Corporation, Sunnyvale, Calif.).

Question: Which “time to down-regulation of ERK/cyclin-D, Akt/mTor, IGF1-R, Src/Fak and eEF-2K” value [1] does the source give for CCCCCCCCCOc1ccc2[nH]cc(CCN)c2c1 [5-NT, 5-nonylytryptamine] here?
Answer: ≤ 4 h

Question: And the “toxicity against normal breast epithelium” value [2]?
Answer: not toxic

Question: What about the “toxicity (weight loss)” value ([3]; high dose of 50 mg/kg) of the same molecule?
Answer: without displaying any toxicity

Question: What about the body weight ([3]; liposome incorporated, i.v., 10 mg/kg, at least 15 doses, 4 weeks) of the same molecule?
Answer: did not lose any weight

Question: And the “selectivity for tumorigenic MCF-7 compared to non-tumorigenic MCF-10A” value [4]?
Answer: much higher selectivity

Question: And the inhibition of proliferation ([4]; ER(+))?
Answer: inhibits proliferation

Question: What about the inhibition of proliferation [5] of the same molecule?
Answer: inhibits proliferation

Question: And the “cell survival (O.D.) in a large panel of breast cancer cells” value [6]?
Answer: effective against almost all breast cancer cell lines

Question: What about the induction of apoptosis [7] of the same molecule?
Answer: induced robust apoptosis

Question: What about the “cell death in combination with doxorubicin” value ([7]; with a low dose of doxorubicin) of the same molecule?
Answer: synergistic cell death

Question: What about the colony formation [8] of the same molecule?
Answer: inhibits colony formation

Question: What about the cAMP levels [9] of the same molecule?
Answer: decrease cAMP levels

Question: And the “effect of compound after knockdown of 5-HT1B or 5-HT1D receptor” value [10]?
Answer: blunts the effect

Question: And the inhibition of proliferation [11]?
Answer: inhibits proliferation
